Data set [1] relates to absorption of sodium from the intestinal lumen. The data set is described as follows: Inhibition of intestinal sodium absorption: rat urinary sodium and fecal form 16 h post-dose. As to conditions: for FFS (fecal form score): 16 h post-dose, scale 1-5, group average; for response vs control in vivo at 10 mg/kg / response vs control in vivo at 3 mg/kg: urine 16 h post-dose, read-out: uNa Result, uNa (% of vehicle). The class given is in vivo, Sprague-Dawley rats. Put shortly:
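Eight-week-old Sprague-Dawley rats (n=6) dosed by oral gavage with compound or water vehicle, then kept in metabolic cages with chow and water ad libitum. At 16 h post-dose, urinary sodium measured by ion chromatography and expressed as percent of vehicle mean; fecal form scored 1–5 and averaged over two observations.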

The nature of a further data set: Fecal recovery. The class given is in vivo, Sprague Dawley rats. Conditions: male, Sprague-Dawley, faeces; rat, oral gavage 1 mg/kg, collection time 48 h. The method, then:
Three male Sprague Dawley rats were administered 1 mg/kg test compound by oral gavage. Feces were collected from study animals from 0-48 or 0-72 hours after dosing, dried by lyophilization, and homogenized. Replicate aliquots of 40-60 mg each were subjected to extraction/protein precipitation with 7:1 acetonitrile:water and centrifuged. Supernatants were diluted 1:10 in 50:50 acetonitrile:water prior to analysis by LC-MS/MS. Compound concentrations, determined by interpolation from a standard calibration curve prepared in blank feces matrix, were converted to the percentage of dosed material recovered by taking into account the total collected fecal matter. The percent recovery for each rat was reported as the mean of the calculations from replicate samples. The overall percent recovery (Fecal Recovery [%]) was reported as the mean percent recovery from three rats. Accurate quality control sample recoveries were confirmed in each run and extraction efficiency was periodically verified.

Another data set deals with T1, human NHE3 (Homo sapiens, UniProt P48764).
T1 sequence (P48764 26-834): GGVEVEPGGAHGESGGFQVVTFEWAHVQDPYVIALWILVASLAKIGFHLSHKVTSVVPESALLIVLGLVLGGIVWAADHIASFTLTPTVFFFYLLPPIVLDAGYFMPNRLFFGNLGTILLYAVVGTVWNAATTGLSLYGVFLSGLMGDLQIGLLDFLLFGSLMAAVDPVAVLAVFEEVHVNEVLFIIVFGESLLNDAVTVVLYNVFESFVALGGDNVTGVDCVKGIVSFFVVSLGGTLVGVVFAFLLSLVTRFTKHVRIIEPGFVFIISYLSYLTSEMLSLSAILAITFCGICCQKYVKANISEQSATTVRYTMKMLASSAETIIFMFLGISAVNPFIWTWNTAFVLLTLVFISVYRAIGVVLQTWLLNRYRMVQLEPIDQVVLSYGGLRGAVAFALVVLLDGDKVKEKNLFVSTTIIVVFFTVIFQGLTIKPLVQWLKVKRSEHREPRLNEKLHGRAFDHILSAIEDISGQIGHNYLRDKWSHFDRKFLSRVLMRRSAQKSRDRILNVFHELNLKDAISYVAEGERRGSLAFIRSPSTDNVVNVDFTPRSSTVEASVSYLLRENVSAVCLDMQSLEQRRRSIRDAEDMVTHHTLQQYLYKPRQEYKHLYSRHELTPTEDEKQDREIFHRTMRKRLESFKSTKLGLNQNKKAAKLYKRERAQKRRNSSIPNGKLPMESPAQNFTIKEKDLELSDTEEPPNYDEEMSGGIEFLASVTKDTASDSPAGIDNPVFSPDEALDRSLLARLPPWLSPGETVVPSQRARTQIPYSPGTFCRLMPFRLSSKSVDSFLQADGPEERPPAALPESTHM
The data set is described as follows: Cell-based assay of NHE-3 activity (human NHE3 inhibition assay). The arrangement: expressed in transfected cells; host or cells: Opossum kidney (OK) cells (ATCC), electroporated. Conditions: OK cells with human NHE-3 gene, BCECF pH recovery, 0-30 μM test compound; read-out: Human NHE3 pIC50 (converted). Put shortly:
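Opossum kidney cells electroporated with rat or human NHE-3, loaded with 5 μM BCECF-AM in NH4Cl-HEPES pH 7.4 for 30 min at RT, then acidified 10 min in Na+-free choline HEPES. Na+-dependent pH recovery rates from BCECF fluorescence, averaged over ≥2 replicates, gave pIC50.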

Regarding `CN(C)[C@H]1Cc2c(Cl)cc(Cl)cc2[C@@H]1Oc1ccc(S(=O)(=O)NCCOCCOCCNC(=O)NCCCCNC(=O)NCCOCCOCCNS(=O)(=O)c2ccc(O[C@H]3c4cc(Cl)cc(Cl)c4C[C@@H]3N(C)C)cc2)cc1` [Example 1, (S,S)—N,N′-(10,17-dioxo-3,6,21,24-tetraoxa-9,11,16,18-tetraazahexacosane-1,26-diyl)bis(4-((1S,2S)-4,6-dichloro-2-(dimethylamino)-2,3-dihydro-1H-inden-1-yloxy)benzenesulfonamide)], in data set [1] (oral gavage 10 mg/kg), the “FFS (fecal form score)” value amounted to 1 and the response vs control in vivo at 10 mg/kg was less than 35%. In addition, in the data set “Fecal recovery”, the dose excreted worked out at 87.7%. The IC50 at human NHE3 is less than 100 nM.
Take `CN(C)[C@H]1Cc2c(Cl)cc(Cl)cc2[C@@H]1Oc1ccc(S(=O)(=O)NCCOCCOCCNC(=O)COCC(=O)NCCOCCOCCNS(=O)(=O)c2ccc(O[C@H]3c4cc(Cl)cc(Cl)c4C[C@@H]3N(C)C)cc2)cc1` [Example 9, 2,2′-oxybis(N-(2-(2-(2-(4-((1S,2S)-4,6-dichloro-2-(dimethylamino)-2,3-dihydro-1H-inden-1-yloxy)phenylsulfonamido)ethoxy)ethoxy)ethyl)acetamide)]: in data set [1] (oral gavage 3 mg/kg), the “FFS (fecal form score)” value is listed as 2 and the response vs control in vivo at 3 mg/kg lay within 35 to 75%. The same molecule came in with a dose excreted in the data set “Fecal recovery” of 65.7%. Further, at human NHE3, the IC50 was less than 100 nM.
In the case of `O=C(NCCCCNC(=O)NCCOCCOCCNS(=O)(=O)c1ccc(O[C@H]2c3cc(Cl)cc(Cl)c3C[C@@H]2N2CC[C@@H](O)C2)cc1)NCCOCCOCCNS(=O)(=O)c1ccc(O[C@H]2c3cc(Cl)cc(Cl)c3C[C@@H]2N2CC[C@@H](O)C2)cc1` [Example 30], the response vs control in vivo at 3 mg/kg in data set [1] (oral gavage 3 mg/kg) was 35 to 75%. In the data set “Fecal recovery”, this molecule displayed a dose excreted of 66.8%. In addition, the IC50 on human NHE3 is less than 100 nM.
With `CN(C)[C@H]1Cc2c(Cl)cc(Cl)cc2[C@@H]1Oc1ccc(S(=O)(=O)NCCOCCOCCNC(=O)CCC(C)(N)CCC(=O)NCCOCCOCCNS(=O)(=O)c2ccc(O[C@H]3c4cc(Cl)cc(Cl)c4C[C@@H]3N(C)C)cc2)cc1` [Example 11, 4-amino-N1,N7-bis(2-(2-(2-(4-((1S,2S)-4,6-dichloro-2-(dimethylamino)-2,3-dihydro-1H-inden-1-yloxy)phenylsulfonamido)ethoxy)ethoxy)ethyl)-4-methylheptanediamide], the response vs control in vivo at 10 mg/kg in data set [1] (oral gavage 10 mg/kg) was 35 to 75%. In “Fecal recovery”, this molecule showed a dose excreted of 82.1%. Further, the IC50 at human NHE3 was less than 100 nM.

These data come from patent US10376481B2, “Compounds and methods for inhibiting NHE-mediated antiport in the treatment of disorders associated with fluid retention or salt overload and gastrointestinal tract disorders” (ARDELYX, INC, priority 2012, dated 2019).
